From PMC11822212, “High-throughput screening identifies Aurora kinase B as a critical therapeutic target for Merkel cell carcinoma” (Nature Communications, 2025) come the findings set out here.

Structures are written as SMILES.

One assay relates to CRL-7250 cells. Kind of assay: qHTS cell viability (CellTiter-Glo, 72 h; primary screen), control cell line. It is filed as cell-based.
Assay [1] relates to VN-MCC cell lines (MCC13, MCC26, UISO). Kind of assay: qHTS cell viability, VN-MCC cell lines as a group (mean AUC, VN.MCC.avg). It is filed as cell-based, human. To be noted: for VN-MCC_Avg_AUC: mean AUC of VN-MCC cell lines. A general note: In qHTS, concentration-response curves come from the screen itself.
The subject of a further assay is MCC13 cells (VN-MCC). As to the kind of experiment: qHTS cell viability (CellTiter-Glo, 72 h; primary and follow-up small molecule screen). It is filed as cell-based, human.
Another assay deals with WAGA cells (VP-MCC). The assay is described as above. Type of assay: cell-based, human.
A further assay deals with NIH-3T3 cells. Kind of assay: qHTS cell viability (CellTiter-Glo, 72 h; primary screen), control cell line. Type of assay: cell-based, mouse.
The test system of the next assay is UISO cells (VN-MCC). Kind of assay: qHTS cell viability (CellTiter-Glo, 72 h; primary and follow-up small molecule screen). It is filed as cell-based, human.
The test system of another assay is MKL-2 cells (VP-MCC). Described as above. Type of assay: cell-based, human.
Assay [2] has as its system control cell lines (HACAT, HEK293T, CRL-7250, NIH-3T3). As to the kind of experiment: qHTS cell viability, control cell lines as a group (mean AUC, Control.avg). Type of assay: cell-based. The following applies: mean AUC of control cell lines.
Another assay deals with HEK293T cells. As to the kind of experiment: qHTS cell viability (CellTiter-Glo, 72 h; primary screen), control cell line. It is filed as cell-based, human.
Assay [3] concerns MCC cell lines (WAGA, MKL-1, MKL-2, MCC13, MCC26, UISO). As to the kind of experiment: qHTS cell viability, all six MCC cell lines as a group (mean AUC, MCC.avg). To be noted: mean AUC of six MCC cell lines. Type of assay: cell-based, human.
In assay [4] the test system is six MCC cell lines and four control cell lines. As to the kind of experiment: qHTS cell viability, all 10 cell lines screened. It is filed as cell-based.
Another assay has as its system HACAT cells. Kind of assay: qHTS cell viability (CellTiter-Glo, 72 h; primary screen), control cell line. It is filed as cell-based, human.
A further assay has as its system MKL-1 cells (VP-MCC). As to the kind of experiment: qHTS cell viability (CellTiter-Glo, 72 h; primary and follow-up small molecule screen). It is filed as cell-based, human.
The test system of assay [5] is VP-MCC cell lines (WAGA, MKL-1, MKL-2). As to the kind of experiment: qHTS cell viability, VP-MCC cell lines as a group (mean AUC, VP.MCC.avg). Type of assay: cell-based, human. The following applies: for VP-MCC_Avg_AUC: mean AUC of VP-MCC cell lines.
The test system of a further assay is MCC26 cells (VN-MCC). As to the kind of experiment: qHTS cell viability (CellTiter-Glo, 72 h; primary and follow-up small molecule screen). It is filed as cell-based, human.
Where [6] appears, read: MIPE library, 11-point DRC, control cell line, sheet S2E.
Setting [7] is: MIPE library, Control AUC minus VN-MCC AUC (therapeutic window), sheet S2E.
Setting [8] is: MIPE library, 11-point DRC, sheet S2E.
Where [9] appears, read: MIPE library, Control AUC minus MCC AUC (therapeutic window), sheet S2E.
Setting [10] is: MIPE library, Control AUC minus VP-MCC AUC (therapeutic window), sheet S2E.
[11] abbreviates: area under the dose-response curve, CRL7250 control cells, AUC<450 = reduced viability.
The mark [12] stands for this setting: area under the dose-response curve, MCC13 cells, AUC<450 = reduced viability.
Where [13] appears, read: area under the dose-response curve, WAGA cells, AUC<450 = reduced viability.
The mark [14] stands for this setting: area under the dose-response curve, NIH3T3 control cells, AUC<450 = reduced viability.
Where [15] appears, read: area under the dose-response curve, UISO cells, AUC<450 = reduced viability.
The mark [16] stands for this setting: area under the dose-response curve, MKL-2 cells, AUC<450 = reduced viability.
The mark [17] stands for this setting: area under the dose-response curve, HEK293T control cells, AUC<450 = reduced viability.
The mark [18] stands for this setting: area under the dose-response curve, HACAT control cells, AUC<450 = reduced viability.
Setting [19] is: area under the dose-response curve, MCC26 cells, AUC<450 = reduced viability.

As for `O=C(CCCCCCC(=O)Nc1cccnc1)NO` [Pyroxamide], the CRL7250_AUC in the assay with CRL-7250 cells (setting [6]) stood at 459.817. In [1] (setting [7]), this molecule came in with a Control-VN-MCC of -0.2641. For the same molecule, the VN-MCC_Avg_AUC in [1] (MIPE library, sheet S2E) was determined as 454.124. In addition, the MCC13_AUC in the assay with MCC13 cells (VN-MCC) (setting [8]) amounted to 454.868. Moreover, in the assay with WAGA cells (VP-MCC) (setting [8]), the WAGA_AUC stood at 346.535. In the assay with NIH-3T3 cells (setting [6]), this molecule came in with an NIH3T3_AUC of 462.753. Also, the UISO_AUC in the assay with UISO cells (VN-MCC) (setting [8]) is 440.831. For the same molecule, the MKL2_AUC in the assay with MKL-2 cells (VP-MCC) (setting [8]) worked out at 371.322. This molecule returned a Control_Avg_AUC in assay [2] (MIPE library, sheet S2E) of 453.86. For the same molecule, the HEK293T_AUC in the assay on HEK293T cells (setting [6]) is reported as 439.975. The molecule further came in with an MCC_Avg_AUC in [3] (MIPE library, sheet S2E) of 413.478. The molecule also gave a Control-MCC in assay [4] (setting [9]) of 40.3813. The same molecule registered an HACAT_AUC in the assay on HACAT cells (setting [6]) of 452.893. In the assay with MKL-1 cells (VP-MCC) (setting [8]), this molecule came in with an MKL1_AUC of 400.642. For the same molecule, the Control-VP-MCC in [5] (setting [10]) is reported as 81.0267. In assay [5] (MIPE library, sheet S2E), the VP-MCC_Avg_AUC amounted to 372.833. In the assay on MCC26 cells (VN-MCC) (setting [8]), this molecule had an MCC26_AUC of 466.672.
Take `CC(=O)SCC(Cc1ccccc1)C(=O)NCC(=O)OCc1ccccc1` (centres unmarked) [Racecadotril]: the CRL7250_AUC with CRL-7250 cells (setting [6]) was 474.01; in the assay with CRL-7250 cells (setting [11]), 474.054. In [1] (setting [7]), this molecule returned a Control-VN-MCC of 11.6784. Further, the VN-MCC_Avg_AUC in [1] (MIPE library, sheet S2E) amounted to 459.691. In addition, the figures for the MCC13_AUC with MCC13 cells (VN-MCC) (setting [8]) and in the assay with MCC13 cells (VN-MCC) (setting [12]) were 461.58 and 485.077, respectively. Also, the results for the WAGA_AUC in the assay on WAGA cells (VP-MCC) (setting [8]) and in the assay with WAGA cells (VP-MCC) (setting [13]) were 280.978 and 389.872, respectively. For the same molecule, the figures for the NIH3T3_AUC in the assay on NIH-3T3 cells (setting [6]) and in the assay on NIH-3T3 cells (setting [14]) were 475.653 and 480.677, respectively. Moreover, the values for the UISO_AUC in the assay on UISO cells (VN-MCC) (setting [8]) and with UISO cells (VN-MCC) (setting [15]) were 428.805 and 451.995, respectively. For the same molecule, the MKL2_AUC in the assay on MKL-2 cells (VP-MCC) (setting [8]) is on record as 282.974; with MKL-2 cells (VP-MCC) (setting [16]), 385.069. The molecule also returned a Control_Avg_AUC in [2] (MIPE library, sheet S2E) of 471.369. In addition, the figures for the HEK293T_AUC with HEK293T cells (setting [6]) and in the assay with HEK293T cells (setting [17]) were 456.066 and 472.387, respectively. The MCC_Avg_AUC in assay [3] (MIPE library, sheet S2E) amounted to 374.417. The Control-MCC in assay [4] (setting [9]) worked out at 96.952. In addition, the HACAT_AUC in the assay with HACAT cells (setting [6]) was 479.748; in the assay with HACAT cells (setting [18]), 454.884. The MKL1_AUC with MKL-1 cells (VP-MCC) (setting [8]) is listed as 303.479; in the assay on MKL-1 cells (VP-MCC) (area under the dose-response curve, MKL-1 cells, AUC<450 = reduced viability), 393.26. Besides, the Control-VP-MCC in assay [5] (setting [10]) came out at 182.226. In addition, in [5] (MIPE library, sheet S2E), the VP-MCC_Avg_AUC turned out to be 289.144. Further, the MCC26_AUC came to 488.688 in the assay with MCC26 cells (VN-MCC) (setting [8]) and 492.456 in the assay with MCC26 cells (VN-MCC) (setting [19]).
Take `CCCC(=O)OC[C@@H](OC(=O)CCC)[C@@H](OC(=O)CCC)[C@H](Cn1c2nc(=O)[nH]c(=O)c-2nc2cc(C)c(C)cc21)OC(=O)CCC` [Riboflavin tetrabutyrate]: the CRL7250_AUC in the assay on CRL-7250 cells (NPC library, qHTS dose-response AUC, CRL7250 control) amounted to 470.473; in the assay with CRL-7250 cells (setting [11]) it was 470.473. The VN-MCC_Avg_AUC in assay [1] (NPC library) stood at 491.721. The Control-VN-MCC in assay [1] (NPC library, therapeutic window: Control avg AUC minus VN-MCC avg AUC) is recorded as -19.0227. Moreover, the MCC13_AUC in the assay with MCC13 cells (VN-MCC) (NPC library, qHTS dose-response AUC, MCC13) was 481.481; in the assay with MCC13 cells (VN-MCC) (setting [12]), 481.481. Besides, the WAGA_AUC amounted to 418.091 in the assay on WAGA cells (VP-MCC) (NPC library, qHTS dose-response AUC, WAGA) and 418.091 in the assay with WAGA cells (VP-MCC) (setting [13]). Moreover, the NIH3T3_AUC in the assay with NIH-3T3 cells (NPC library, qHTS dose-response AUC, NIH3T3 control) is listed as 473.017; with NIH-3T3 cells (setting [14]), 473.017. Besides, the UISO_AUC is 492.96 in the assay with UISO cells (VN-MCC) (NPC library, qHTS dose-response AUC, UISO) and 492.96 in the assay on UISO cells (VN-MCC) (setting [15]). The MKL2_AUC is reported as 430.163 in the assay with MKL-2 cells (VP-MCC) (NPC library, qHTS dose-response AUC, MKL2) and 430.163 with MKL-2 cells (VP-MCC) (setting [16]). This molecule also gave a Control_Avg_AUC in [2] (NPC library) of 472.698. Also, the HEK293T_AUC in the assay with HEK293T cells (NPC library, qHTS dose-response AUC, HEK293T control) came to 450.178; in the assay on HEK293T cells (setting [17]), 450.178. The molecule also showed an MCC_Avg_AUC in [3] (NPC library) of 456.689. The molecule further returned a Control-MCC in [4] (NPC library, therapeutic window: Control avg AUC minus MCC avg AUC) of 16.0097. The HACAT_AUC in the assay with HACAT cells (NPC library, qHTS dose-response AUC, HACAT control) amounted to 497.126; with HACAT cells (setting [18]), 497.126. Further, the MKL1_AUC stood at 416.714 with MKL-1 cells (VP-MCC) (NPC library, qHTS dose-response AUC, MKL1) and 416.714 in the assay with MKL-1 cells (VP-MCC) ({}). This molecule also showed a VP-MCC_Avg_AUC in assay [5] (NPC library) of 421.656. Moreover, the Control-VP-MCC in assay [5] (NPC library, therapeutic window: Control avg AUC minus VP-MCC avg AUC) was 51.0422. Besides, the MCC26_AUC with MCC26 cells (VN-MCC) (NPC library, qHTS dose-response AUC, MCC26) came to 500.723; in the assay on MCC26 cells (VN-MCC) (setting [19]), 500.723.
